Measurements taken from patent US7410553B2, “Building construction felt paper with biocide/anti-microbial treatment” (Atlas Roofing Corporation, priority 2005, dated 2008).
Like-named read-outs stand apart in the source and are kept apart here. Marks after values point to notes of the source that are not given here.

Assays:
Aspergillus niger = assay: Agar-Plate Test Method (modified ASTM G-21), radial mycelial growth on biocide-containing agar; format: cell-based; conditions: for IC50 (ppm) Aspergillus niger: linear regression of radial growth
Protocol: (§1) Five biocides were chosen for a comparative evaluation for inhibition activity against three common mold fungi. The evaluation was performed at the Forest Research Labs of Mississippi State University in Starkville, Miss. (“MSU”) using a substantially modified version of ASTM G-21, termed the “The Agar-Plate Test Method”. This method provides a rapid screening test for the evaluation of biocides against a wide variety of microorganisms.
(§2) Five (5) biocide compositions (“biocides”) were evaluated using the Agar-Plate Test Method: (1) Microbe Shield, (2) Zinc Pyrithione (ZPT), (3) ortho-Phenyl Phenol, (4) Borogard ZB, and (5) a mixture evaluated of 50% Zinc Pyrithione with 50% Borogard ZB. These biocide compositions were added to autoclaved fungal media at different concentrations. […] Plugs of specific fungi were inoculated onto agar plates containing the different biocides/concentrations.
(§3) For terminology, “hypha” (singular) and “hyphae” (plural) is/are a loose network of delicate filaments in a fungus. […] (plus the adjective form “mycelial”) is/are the main part of fungus, consisting of the feeding and reproducing hyphae, that forms the body of a fungus. Radial growth of a mycelia is measured and plotted against concentration. A linear regression is run to estimate the biocide concentration that inhibits radial growth by 50%. This Inhibitory Concentration is called the IC50.
(§4) The five (5) different biocides that were involved in the comparative evaluations were tested at four (4) concentrations per biocide composition, plus a control (no biocide). The biocides were tested against three common mold fungi (Aspergillus niger, Cladosporium cladosporioides, and Penicillium funiculosum) with five (5) replicates for every treatment combination. The biocides that were tested and their concentrations were (1) Microbe Shield at 0, 3, 15, 75 and 375 ppm (“Parts Per Million”) ai (“Active Ingredient”); (2) Zinc Pyrithione at 0, 3, 15, 75 and 375 ppm ai; (3) ortho-Phenyl Phenol (“OPP”) at 0, 3, 15, 75 and 375 ppm ai; (4) Borogard ZB at 0, 10, 50, 250, and 1250 ppm ai; and (5) the 50:50 mixture of Zinc Pyrithione and Borogard ZB at 0, 1.5/5.0, 7.5/25, 37.5/125, and 187.5/625 ppm ai.
(§5) Stock concentrations of each biocide were dissolved or suspended in water or acetone (only OPP was dissolved in acetone) to a concentration that allowed 1 ml of stock to be added to 250 ml of media in order to provide the highest required biocide concentration. Stocks were diluted in a 5 fold series to match the concentrations required. For each biocide concentration, 250 ml of Sabouraund Dextrose Agar in water was autoclaved and then cooled to 50° C. Then 1 ml of the appropriate biocide concentration was added to each flask. Control flasks received 1 ml of water or acetone (for OPP). Media was mixed, dispensed into Petri dishes and allowed to cool. Each biocide test used 90 agar plates including controls.
(§6) A […] plug of agar was removed from every plate at the time of each study. A plug from an agar plate containing one of the fungi was inserted into the hole. The plug of fungi was taken from the leading edge of a fungal colony. Several plates of fungi were required for each study. The studies were grouped by fungi. The Cladosporium cladosporioides study began first; the Aspergillus niger study began next; and the Penicillium funiculosum study began last. Mycelial growth was measured for every plate in each study. Fast growing species were measured daily and slower growing species were measured every 2-3 days. All studies were carried for at least two weeks or until growth leveled out. Digital photographs were taken at different times during each fungal study.
(§7) The average for the five replicates of each biocide concentration was determined and the averages plotted as growth over time for each biocide.

[1] = test system: Cladosporium cladosporioides; assay: as above; format: cell-based
Protocol: as §1, §2, §3, §4, §5, §6, §7

Penicillium funiculosum = assay: as above; format: cell-based
Protocol: as §1, §2, §3, §4, §5, §6, §7

[2] = test system: Stachybotrys chartarum (ATCC 9182)
Text: (§8) As mentioned above, the example apparatus of FIG. 1 and any suitable biocide can be used for treating a nonwoven mat. Such biocides include but are not limited to those mentioned and evaluated, e.g., ZPT (zinc pyrithione), OPP (ortho-Phenyl Phenol), and Microbe Shield. […] A large number of differing levels of treatment were made and samples of each dosage rate retained.
(§9) In order to establish a range of dosage levels that might quantify their effectiveness, four (4) dosage levels were utilized: (a) 62-grams/MSF; (2) 86-grams/MSF; (3) 116-grams/MSF, and (4) 123-grams/MSF; plus a zero grams/MSF(0) control. The unit of measure: “per MSF” or per “Thousand Square Feet”, rather than a unit of weight; e.g., “per Ton”, is the most common unit of sale for many special nonwoven webs.
(§10) After the biocide was applied to the nonwoven web at the varying dosage levels, two different testing facilities were used to evaluate these samples: The Forest Research Labs of Mississippi State University (MSU), and the laboratory of Arch Chemicals, Inc. (“Arch”). MSU evaluated the treated samples for resistance to mold using testing procedures of, e.g., ASTM D 6329-98, “Standard Guide for Developing Methodology for Evaluating the Ability of Indoor Materials to Support Microbial Growth Using Static Environmental Chambers,” and Arch Chemicals utilized ASTM G 21-96 (Re-approved 2002), “Standard Practice for Determining Resistance of Synthetic Polymeric Materials to Fungi”, both from ASTM International, PA, USA.
(§11) The MSU testing used the fungus Stachybotrys chartarum, but allowed “other molds” to enter the chamber. The Stachybotrys chartarum (ATCC 9182) was grown on Potato Dextrose Agar (“PDA”) and Sabouraud Dextrose Agar and allowed to sporulate (i.e., produce spores). This procedure followed ASTM C 1338-00, Standard Test Method for Determining Fungi Resistance of Insulation Materials and Facings. ASTM International, PA., USA. The solution was adjusted with additional sterile water until a spore count of approximately 940,000 cells per ml was obtained. This solution was the inoculum. A portion of this solution was also plated onto PDA to confirm the viable cell count. In the test, the nonwoven felt pieces were laid out with their treated side up, and inoculated with the spore suspension by an atomizer (ASTM C 1338-00). The pieces were allowed to air dry for several hours before being placed into the static environmental chambers. There were five replicates for each sample set (62-grams/MSF; 86-grams/MSF; 116-grams/MSF, and 123-grams/MSF; plus a zero (0) control) for each sampling period (2 weeks, 4 weeks, and 6 weeks).
(§12) The numbers in Table 3 are in colony forming units (CFUs), a well known standard of measure prescribed, e.g., by ASTM 6329-98.

other molds = test system: other molds
Text: as §8, §9, §10, §11, §12

[3] = by one of California's hazardous materials watchdog organizations; NIOSH does not draw that conclusion; cited from earlier work
[4] = ppm ai in agar, totally inhibits fungal growth
[5] = ppm ai in agar, linear regression of radial growth
[6] = concluded from Table 3 and Table 4
[7] = nonwoven felt with 62-g/MSF ZPT, Week Number 2
[8] = nonwoven felt with 62-g/MSF ZPT, Week Number 4
[9] = nonwoven felt with 62-g/MSF ZPT, Week Number 6
[10] = nonwoven felt with 86-g/MSF ZPT, Week Number 2
[11] = nonwoven felt with 86-g/MSF ZPT, Week Number 4
[12] = nonwoven felt with 86-g/MSF ZPT, Week Number 6
[13] = nonwoven felt with 116-g/MSF ZPT, Week Number 2
[14] = nonwoven felt with 116-g/MSF ZPT, Week Number 4
[15] = nonwoven felt with 116-g/MSF ZPT, Week Number 6
[16] = nonwoven felt with 123-g/MSF ZPT, Week Number 2
[17] = nonwoven felt with 123-g/MSF ZPT, Week Number 4
[18] = nonwoven felt with 123-g/MSF ZPT, Week Number 6
[19] = footnote a: extrapolation outside of the test concentration range

## zinc pyrithione [Zn Pyrithione]
Aspergillus niger; ppm ai in agar
  IC50 (ppm) Aspergillus niger: 9.2 ppm
Aspergillus niger; [4]
  MIC (ppm) Aspergillus niger: 21.2 ppm
[1]; [5]
  IC50 (ppm) Cladosporium cladosporioides: ≤ 1.8^b ppm
[1]; [4]
  MIC (ppm) Cladosporium cladosporioides: ≤ 15^b ppm
Penicillium funiculosum; [5]
  IC50 (ppm) Penicillium Funiculosum: 8.0 ppm
Penicillium funiculosum; [4]
  MIC (ppm) Penicillium Funiculosum: 16.2 ppm
[2]; biocide dose of 62-grams ZPT per MSF
  mold growth in the MSU test: mold DOES grow
[2]; [6]
  amount of biocide at which mold resistance is optimum: ≥ 100 grams per MSF (per side)
  amount of biocide at which significant mold resistance is imparted: ≥ 50 grams per MSF per side
[2]; [7]
  Stachybotrys colony forming units: 0 CFUs
[2]; [8]
  Stachybotrys colony forming units: 680 CFUs
[2]; [9]
  Stachybotrys colony forming units: 3710 CFUs
[2]; [10]
  Stachybotrys colony forming units: 0 CFUs
[2]; [11]
  Stachybotrys colony forming units: 390 CFUs
[2]; [12]
  Stachybotrys colony forming units: 1110 CFUs
[2]; [13]
  Stachybotrys colony forming units: 0 CFUs
[2]; [14]
  Stachybotrys colony forming units: 0 CFUs
[2]; [15]
  Stachybotrys colony forming units: 0.2 CFUs
[2]; [16]
  Stachybotrys colony forming units: 0 CFUs
[2]; [17]
  Stachybotrys colony forming units: 0.4 CFUs
[2]; [18]
  Stachybotrys colony forming units: 0 CFUs
Other molds; [7]
  Other Mold colony forming units: 880 CFUs
Other molds; [8]
  Other Mold colony forming units: 3360 CFUs
Other molds; [9]
  Other Mold colony forming units: 19730 CFUs
Other molds; [10]
  Other Mold colony forming units: 530 CFUs
Other molds; [11]
  Other Mold colony forming units: 3450 CFUs
Other molds; [12]
  Other Mold colony forming units: 4100 CFUs
Other molds; [13]
  Other Mold colony forming units: 67 CFUs
Other molds; [14]
  Other Mold colony forming units: 125 CFUs
Other molds; [15]
  Other Mold colony forming units: 7540 CFUs
Other molds; [16]
  Other Mold colony forming units: 0 CFUs
Other molds; [17]
  Other Mold colony forming units: 54 CFUs
Other molds; [18]
  Other Mold colony forming units: 5380 CFUs

## Oc1ccccc1-c1ccccc1 [OPP, ortho-Phenyl Phenol]
Aspergillus niger; Aspergillus niger, read-out: MIC (ppm) Aspergillus niger
  MIC: 84.5 µg/mL
Aspergillus niger; ppm ai in agar
  IC50 (ppm) Aspergillus niger: 16.3 ppm
[1]; Cladosporium cladosporioides, read-out: MIC (ppm) Cladosporium cladosporioides
  MIC: ≤ 375 µg/mL
[1]; [5]
  IC50 (ppm) Cladosporium cladosporioides: ≤ 203.8^b ppm
Penicillium funiculosum; Talaromyces funiculosus, read-out: MIC (ppm) Penicillium Funiculosum
  MIC: ≤ 375 µg/mL
Penicillium funiculosum; [5]
  IC50 (ppm) Penicillium Funiculosum: ≤ 212.6^b ppm
[3]
  carcinogenicity rating: human carcinogen

## CCCCCCCCCCCCCCCCCC[N+](C)(C)CCC[Si](OC)(OC)OC.[Cl-] [Microbe Shield, 3-trimethixysilylpropyldimethyloctadecyl ammonium chloride]
Aspergillus niger; [19]
  MIC (ppm) Aspergillus niger: 625^a ppm
Aspergillus niger; ppm ai in agar
  IC50 (ppm) Aspergillus niger: 286 ppm
[1]; [19]
  IC50 (ppm) Cladosporium cladosporioides: 2025^a ppm
  MIC (ppm) Cladosporium cladosporioides: 5575^a ppm
Penicillium funiculosum; [19]
  IC50 (ppm) Penicillium Funiculosum: 670^a ppm
  MIC (ppm) Penicillium Funiculosum: 1289^a ppm
